Measured values taken from the supplement of paper PMC10307832.

How the values were obtained:
Assay in all cases: relative viability (nuclei count vs DMSO), 5 days (fraction); higher = more cells survive
XMD8-85 + AZD7762 = compound: CN1CCN(CC1)C2=CC(=C(C=C2)NC3=NC=C4C(=N3)N(C5=CC=CC=C5C(=O)N4C)C)OC [XMD8-85] + NC(=O)Nc1cc(-c2cccc(F)c2)sc1C(=O)N[C@H]1CCCNC1 [AZD7762] (partner 0.2 µM)
Summary of the method: (§1)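 Lung cancer cell lines, seeded in 1536-well plates, were treated the following day by pin tool with a single drug or with five library-drug doses (not always all listed) in √10 steps on top of a fixed anchor-drug dose. Cells were fixed and nuclei stained in one step after 5 days, and nuclei were counted. Relative viability is the nuclei count for treated wells divided by that for vehicle wells, reported as medians of duplicate plates.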

XMD8-85 + Dasatinib = compound: CN1CCN(CC1)C2=CC(=C(C=C2)NC3=NC=C4C(=N3)N(C5=CC=CC=C5C(=O)N4C)C)OC [XMD8-85] + Cc1nc(Nc2ncc(C(=O)Nc3c(C)cccc3Cl)s2)cc(N2CCN(CCO)CC2)n1 [Dasatinib] (partner 0.075 µM)
Summary of the method: as §1

XMD8-85 + Luminespib = compound: CN1CCN(CC1)C2=CC(=C(C=C2)NC3=NC=C4C(=N3)N(C5=CC=CC=C5C(=O)N4C)C)OC [XMD8-85] + CCNC(=O)c1noc(-c2cc(C(C)C)c(O)cc2O)c1-c1ccc(CN2CCOCC2)cc1 [Luminespib] (partner 0.01 µM)
Summary of the method: as §1

4EGI-1 + Olaparib = compound: O=C(O)C(Cc1ccccc1[N+](=O)[O-])=NNc1nc(-c2ccc(Cl)c(Cl)c2)cs1 (mixture of isomers) [4EGI-1] + O=C(c1cc(Cc2n[nH]c(=O)c3ccccc23)ccc1F)N1CCN(C(=O)C2CC2)CC1 [Olaparib] (partner 8 µM)
Summary of the method: as §1

XMD8-85 + Lapatinib = compound: CN1CCN(CC1)C2=CC(=C(C=C2)NC3=NC=C4C(=N3)N(C5=CC=CC=C5C(=O)N4C)C)OC [XMD8-85] + CS(=O)(=O)CCNCc1ccc(-c2ccc3ncnc(Nc4ccc(OCc5cccc(F)c5)c(Cl)c4)c3c2)o1 [Lapatinib] (partner 2 µM)
Summary of the method: as §1

Which relative viability (XMD8-85 + AZD7762; first compound 0.8 µM) does the source give for NCI-H1792 here?
The relative viability was 0.647.

What about the relative viability (XMD8-85 + AZD7762; first compound 2.53 µM) of the same cell line?
Its relative viability is 0.694.

And the relative viability (XMD8-85 + AZD7762; first compound 8 µM)?
The relative viability was 0.574.

And the relative viability (XMD8-85 + Dasatinib; first compound 0.253 µM)?
The relative viability was 0.749.

And the relative viability (XMD8-85 + Dasatinib; first compound 2.53 µM)?
The relative viability was 1.15.

What about the relative viability (XMD8-85 + Dasatinib; first compound 8 µM) of the same cell line?
The relative viability was 0.85.

What about the relative viability (XMD8-85 + Luminespib; first compound 0.253 µM) of the same cell line?
Its relative viability is 0.504.

What about the relative viability (XMD8-85 + Luminespib; first compound 2.53 µM) of the same cell line?
The relative viability was 0.371.

What about the relative viability (XMD8-85 + Luminespib; first compound 8 µM) of the same cell line?
The relative viability was 0.35.

And the relative viability (4EGI-1 + Olaparib; first compound 0.5 µM)?
The relative viability was 0.412.

What about the relative viability (4EGI-1 + Olaparib; first compound 1.581 µM) of the same cell line?
The relative viability was 0.496.

What about the relative viability (4EGI-1 + Olaparib; first compound 5 µM) of the same cell line?
Its relative viability is 0.359.

And the relative viability (4EGI-1 + Olaparib; first compound 15.81 µM)?
The relative viability was 0.36.

What about the relative viability (4EGI-1 + Olaparib; first compound 50 µM) of the same cell line?
Its relative viability is 0.165.

What about the relative viability (XMD8-85 + Lapatinib; first compound 0.08 µM) of the same cell line?
Its relative viability is 0.893.

What about the relative viability (XMD8-85 + Lapatinib; first compound 0.253 µM) of the same cell line?
The relative viability was 0.63.

And the relative viability (XMD8-85 + Lapatinib; first compound 2.53 µM)?
Its relative viability is 0.675.

What about the relative viability (XMD8-85 + Lapatinib; first compound 8 µM) of the same cell line?
The relative viability was 0.879.
